According to patent US8932597B2 (priority 2008, dated 2015):

Columns and labels:
[1] = test system: HuM2e antibody 23K12; format: binding, human
[2] = test system: anti-M2 human monoclonal antibody Z3G1; format: binding

Substance | Signal (peptides that bind to 23K21 and 8I10) [1] | Signal (peptides that bind to Z3G1) [2] | Signal (peptides that show specific binding to Z3G1) [2]
456 (CSLLTECGMSLLCEV; epitope peptide) [compound 456] | 1294 | 1640 | –
431 (SLLTEVETPIRNEWGCRCNDSTD; epitope peptide) [compound 431] | 701 | 2205 | –
613 (SLLTEVETPIRNEWGCRCNHSSD; epitope peptide) [compound 613] | 812 | 2439 | –
689 (SLLTEVETPIRNEWGCRCGDSSD; epitope peptide) [compound 689] | 724 | 2343 | –
127 (CSLLTEVETCSLLTEVETC; epitope peptide) [compound 127] | 1647 | – | 2555
525 (SLLTEVGCSCLCEV; epitope peptide) [compound 525] | 996 | – | 1829
459 (SLITEVETPIRNEWGCRCNDSSD; epitope peptide) [compound 459] | 1277 | – | 1996
631 (SLLTEVETPIRKEWGCRCNDSSD; epitope peptide) [compound 631] | 782 | – | 2437
543 (MSLLTCVGMSLLTEV; epitope peptide) [compound 543] | 925 | 2627 | –
708 (SLLTEVETPIRNEGGCRCNDSSD; epitope peptide) [compound 708] | 708 | – | 2486
388 (CSLLTEVGCLLTEV; epitope peptide) [compound 388] | 1351 | – | 2427
437 (SLLTEVETPIR; epitope peptide) [compound 437] | 1012 | 2297 | –
283 (CSLLTEVGSLLTEV; epitope peptide) [compound 283] | 2494 | – | 2903
544 (SLLTEVETPIRNEWGCRCRDSSD; epitope peptide) [compound 544] | 924 | 2447 | –
406 (SLLTEVETPIRNEWGCRCNDFSD; epitope peptide) [compound 406] | 788 | 2395 | –
637 (SLLTEVETPIRNENGCRCNDSSD; epitope peptide) [compound 637] | 768 | – | 2265
506 (SLCTEVGSLLCEV; epitope peptide) [compound 506] | 1050 | – | 1863
373 (CSLLTECGMSLLTEV; epitope peptide) [compound 373] | 1458 | 1235 | –
509 (SLLTEVETPIYNEWGCRCNDSSD; epitope peptide) [compound 509] | 1049 | – | 2296
318 (SLLTEVETPIRNEWGCRCKDSSD; epitope peptide) [compound 318] | 1802 | 2549 | –
557 (MSCLTEVGCSLLTEV; epitope peptide) [compound 557] | 899 | 2506 | –
349 (SLATEVETPIRNEWGCRCNDSSD; epitope peptide) [compound 349] | 1583 | – | 2145
620 (SLLTEVETPIRFEWGCRCNDSSD; epitope peptide) [compound 620] | 806 | – | 2364
450 (SLLTEVEHPIRNEWGCRCNDSSD; epitope peptide) [compound 450] | 1331 | – | 2241
691 (SLLTEVETPIRNEWGCRMNDSSD; epitope peptide) [compound 691] | 722 | – | 2356

Substance | Signal (peptides that bind to 23K21 and 8I10) [1] | Signal (peptides that bind to Z3G1) [2] | Signal (peptides that show specific binding to Z3G1) [2]
510 (SLRTEVETPIRNEWGCRCNDSSD; epitope peptide) [compound 510] | 1047 | – | 1034
411 (SLLTEVETPIRNEWGCRCNDMSD; epitope peptide) [compound 411] | 744 | 2405 | –
688 (SLLTEVETPIRNETGCRCNDSSD; epitope peptide) [compound 688] | 724 | – | 2401
299 (SLLTEVGCLCTCV; epitope peptide) [compound 299] | 1963 | – | 2346
470 (MSLLTEVGCSLLTEC; epitope peptide) [compound 470] | 1227 | 2349 | –
695 (SLLTEVEVPIRNEWGCRCNDSSD; epitope peptide) [compound 695] | 719 | – | 2286
418 (SLLTEVETPIRNEWGCRCNDWSD; epitope peptide) [compound 418] | 929 | 2491 | –
575 (SLLTEVRTPIRNEWGCRCNDSSD; epitope peptide) [compound 575] | 866 | – | 1024
547 (SLLTETETPIRNEWGCRCNDSSD; epitope peptide) [compound 547] | 919 | – | 1594
560 (SLLTEVETPIRNEWGCRCFDSSD; epitope peptide) [compound 560] | 894 | 2538 | –
504 (SLLTEVETPIRNEWGFRCNDSSD; epitope peptide) [compound 504] | 1057 | – | 2349
449 (SLNTEVETPIRNEWGCRCNDSSD; epitope peptide) [compound 449] | 1333 | – | 1908
581 (SLLTEVETYIRNEWGCRCNDSSD; epitope peptide) [compound 581] | 857 | – | 2290
703 (SLLTEVETPIRNWWGCRCNDSSD; epitope peptide) [compound 703] | 713 | – | 2293
461 (SLLTEVETPLRNEWGCRCNDSSD; epitope peptide) [compound 461] | 1268 | – | 2239
611 (SLLTEVETRIRNEWGCRCNDSSD; epitope peptide) [compound 611] | 813 | – | 2159
360 (CSLLTECGCSLLTEV; epitope peptide) [compound 360] | 1534 | 1427 | –
564 (SLLTEVELPIRNEWGCRCNDSSD; epitope peptide) [compound 564] | 886 | – | 2407
452 (SLLTEVGSLLTEC; epitope peptide) [compound 452] | 1326 | – | 1862
363 (MSLLTECGCSLLTEV; epitope peptide) [compound 363] | 1500 | 1235 | –
522 (SLLTMVETPIRNEWGCRCNDSSD; epitope peptide) [compound 522] | 1011 | – | 1244
314 (SLLTEVGSLLCEV; epitope peptide) [compound 314] | 1834 | – | 2392
594 (SLLTEVQTPIRNEWGCRCNDSSD; epitope peptide) [compound 594] | 838 | – | 2289
394 (SLLTEVETPIRNEWGCRCNMSSD; epitope peptide) [compound 394] | 1133 | 2574 | –
407 (SLLTEVETPIRNEWGCRCNDHSD; epitope peptide) [compound 407] | 1200 | 2537 | –
